18 compounds from patent US20230374015A1, “INHIBITORS OF FIBROBLAST GROWTH FACTOR RECEPTOR KINASES” (Kinnate Biopharma Inc., priority 2020, published 2023) can be followed below.

The target of this assay is FGFR2 (Homo sapiens, UniProt P21802). The assay is described as follows: FGFR2 Kinase Protocol - Condition 2 (Reaction Biology HotSpot radiometric kinase assay, no preincubation). The assay is classed as biochemical. The following applies: poly[Glu:Tyr] (4:1) 0.2 mg/ml, ATP 100 microM, 2 hr room temperature. The protocol: Example 2: FGFR2 Kinase Protocol—Condition 2
The Reaction Biology HotSpot assay platform (http://www.reactionbiology.com) was used to measure kinase/inhibitor interactions as described previously (Anastassiadis et al., 2011). In brief, for each reaction, kinase and substrate were mixed in a buffer containing 20 mM HEPES (pH 7.5), 10 mM MgCl2, 1 mM EGTA, 0.02% Brij35, 0.02 mg/mL BSA, 0.1 mM Na3VO4, 2 mM DTT, and 1% DMSO. All compounds were in powder form and freshly solubilized in DMSO for assays. Compounds were then added to each reaction mixture via acoustic dispense using an ECHO 550 nanoliter dispenser. For Human FGFR2 wildtype testing, a peptide substrate, poly[Glu:Tyr] (4:1) was used to promote the reaction at a concentration of 0.2 mg/ml. For Human FGFR2 (V564F) testing, a peptide substrate, poly[Glu:Tyr] (4:1) was used to promote the reaction at a concentration of 0.2 mg/ml. ATP concentration for all assays was maintained at 100 micromolar. Compounds were tested in 10-dose IC50 mode with a 3-fold serial dilution. Compounds were added to plates and ATP was added directly to the wells. ATP (Sigma-Aldrich, St. Louis, MO 63178) and [g33P] ATP (specific activity 10 microCi/microliter) purchased at PerkinElmer (Boston, MA, 02118 Cat #BLU 003H250UC) were added at a final total concentration of 100 microM to each well with no preincubation. Reactions were carried out at room temperature for 2 hr and spotted onto P81 ion exchange cellulose chromatography paper (Reaction Biology). Filter paper was washed in 0.75% phosphoric acid to remove unincorporated ATP. The percent remaining kinase activity relative to a vehicle-containing (DMSO) kinase reaction was calculated for each kinase/inhibitor pair. IC50 values were calculated using Dotmatics Knowledge Solutions Studies curve fitting (Dotmatics, Bishops Stortford, UK, CM23).

Molecules are shown by their SMILES.

The term IC50 denotes the concentration that inhibits the measured activity by half.

FGFR2, sequence (P21802 22-821): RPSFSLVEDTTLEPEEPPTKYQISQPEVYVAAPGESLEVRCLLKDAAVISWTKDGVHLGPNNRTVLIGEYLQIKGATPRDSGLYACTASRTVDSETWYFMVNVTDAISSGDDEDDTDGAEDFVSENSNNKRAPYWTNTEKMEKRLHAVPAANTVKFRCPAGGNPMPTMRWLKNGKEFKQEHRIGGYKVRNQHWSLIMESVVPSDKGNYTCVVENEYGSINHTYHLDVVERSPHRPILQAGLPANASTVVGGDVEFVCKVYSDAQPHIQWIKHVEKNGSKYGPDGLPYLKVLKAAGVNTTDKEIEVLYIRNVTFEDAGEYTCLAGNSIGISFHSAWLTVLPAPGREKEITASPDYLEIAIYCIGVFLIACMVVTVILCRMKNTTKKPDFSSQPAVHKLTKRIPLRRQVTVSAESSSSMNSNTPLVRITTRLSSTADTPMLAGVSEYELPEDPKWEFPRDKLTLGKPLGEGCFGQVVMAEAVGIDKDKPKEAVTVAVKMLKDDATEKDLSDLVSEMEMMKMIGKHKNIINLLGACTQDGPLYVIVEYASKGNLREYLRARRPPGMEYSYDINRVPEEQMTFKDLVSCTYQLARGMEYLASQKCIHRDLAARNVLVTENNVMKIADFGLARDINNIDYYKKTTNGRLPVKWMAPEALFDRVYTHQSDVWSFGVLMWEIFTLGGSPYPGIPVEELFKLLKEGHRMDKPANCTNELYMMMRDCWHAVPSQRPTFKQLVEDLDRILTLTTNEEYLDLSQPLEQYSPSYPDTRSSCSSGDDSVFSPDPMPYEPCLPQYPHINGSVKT

Turning to `C=CC(=O)N1C[C@@H](n2nc(C#Cc3c(F)cc4c(nc(C)n4CC)c3F)c3c(N)ncnc32)C[C@@H]1COC` [Example 32, 1-((2R,4S)-4-(4-amino-3-((1-ethyl-4,6-difluoro-2-methyl-1H-benzo[d]imidazol-5-yl)ethynyl)-1H-pyrazolo[3,4-d]pyrimidin-1-yl)-2-(methoxymethyl)pyrrolidin-1-yl)prop-2-en-1-one], the half-maximal inhibitory concentration (IC50) was at most 0.1 µM.

The compound `C=CC(=O)N1C[C@@H](n2nc(C#Cc3c(F)cc4c(nc(C)n4CC)c3F)c3c(N)nccc32)C[C@@H]1COC` [Example 33, 1-((2R,4S)-4-(4-amino-3-((1-ethyl-4,6-difluoro-2-methyl-1H-benzo[d]imidazol-5-yl)ethynyl)-1H-pyrazolo[4,3-c]pyridin-1-yl)-2-(methoxymethyl)pyrrolidin-1-yl)prop-2-en-1-one] came in with a concentration for half-maximal inhibition (IC50) of at most 0.1 µM.

As for `C=CC(=O)N1C[C@@H](n2nc(C#Cc3ccc4c(cnn4CC)c3)c3c(N)ncnc32)C[C@@H]1COC` [Example 34, 1-((2R,4S)-4-(4-amino-3-((1-ethyl-1H-indazol-5-yl)ethynyl)-1H-pyrazolo[3,4-d]pyrimidin-1-yl)-2-(methoxymethyl)pyrrolidin-1-yl)prop-2-en-1-one], the half-maximal inhibitory concentration (IC50) is at most 0.1 µM.

Take `C=CC(=O)N1C[C@@H](n2nc(C#Cc3ccc4c(cnn4C)c3)c3c(N)nccc32)C[C@@H]1COC` [Example 35, 1-[(2R,4S)-4-[4-amino-3-[2-(1-methylindazol-5-yl)ethynyl]pyrazolo[4,3-c]pyridin-1-yl]-2-(methoxymethyl)pyrrolidin-1-yl]prop-2-en-1-one]: the IC50 fell in the range of 0.1 to 1 µM.

For `C=CC(=O)N1C[C@@H](n2nc(C#Cc3ccc4nn(C)cc4c3)c3c(N)nccc32)C[C@@H]1COC` [Example 36, 1-[(2R,4S)-4-[4-amino-3-[2-(2-methylindazol-5-yl)ethynyl]pyrazolo[4,3-c]pyridin-1-yl]-2-(methoxymethyl)pyrrolidin-1-yl]prop-2-en-1-one], the IC50 is 0.1 to 1 µM.

In turn, `C=CC(=O)N1C[C@@H](n2nc(C#Cc3ccc4c(cnn4CC)c3)c3c(N)nccc32)C[C@@H]1COC` [Example 37, 1-((2R,4S)-4-(4-amino-3-((1-ethyl-1H-indazol-5-yl)ethynyl)-1H-pyrazolo[4,3-c]pyridin-1-yl)-2-(methoxymethyl)pyrrolidin-1-yl)prop-2-en-1-one] registered a 50% inhibitory concentration (IC50) of at most 0.1 µM.

Consider `C=CC(=O)N1C[C@@H](n2nc(C#Cc3ccc4nn(CC)cc4c3)c3c(N)nccc32)C[C@@H]1COC` [Example 38, 1-[(2R,4S)-4-[4-amino-3-[2-(2-ethylindazol-5-yl)ethynyl]pyrazolo[4,3-c]pyridin-1-yl]-2-(methoxymethyl)pyrrolidin-1-yl]prop-2-en-1-one], for which the 50% inhibitory concentration (IC50) was 1 to 10 µM.

For `C=CC(=O)N1C[C@@H](n2nc(C#Cc3c(F)cc4c(nc(C)n4C)c3F)c3c(N)nccc32)C[C@@H]1CC#N` [Example 39, 2-((2R,4S)-1-acryloyl-4-(4-amino-3-((4,6-difluoro-1,2-dimethyl-1H-benzo[d]imidazol-5-yl)ethynyl)-1H-pyrazolo[4,3-c]pyridin-1-yl)pyrrolidin-2-yl)acetonitrile], the IC50 is at most 0.1 µM.

`C=CC(=O)N1C[C@@H](n2nc(C#Cc3ccc4c(cnn4C)c3)c3c(N)ncnc32)C[C@@H]1COC` [Example 40, 1-((2R,4S)-4-(4-amino-3-((1-methyl-1H-indazol-5-yl)ethynyl)-1H-pyrazolo[3,4-d]pyrimidin-1-yl)-2-(methoxymethyl)pyrrolidin-1-yl)prop-2-en-1-one] came in with a half-inhibitory concentration (IC50) of at most 0.1 µM.

Regarding `C=CC(=O)N1C[C@@H](n2nc(C#Cc3ccc4nn(C)cc4c3)c3c(N)ncnc32)C[C@@H]1COC` [Example 41, 1-[(2R,4S)-4-[4-amino-3-[2-(2-methylindazol-5-yl)ethynyl]pyrazolo[3,4-d]pyrimidin-1-yl]-2-(methoxymethyl)pyrrolidin-1-yl]prop-2-en-1-one], the IC50 is 0.1 to 1 µM.

As for `C=CC(=O)N1C[C@@H](n2nc(C#Cc3ccc4nn(CC)cc4c3)c3c(N)ncnc32)C[C@@H]1COC` [Example 42, 1-[(2R,4S)-4-[4-amino-3-[2-(2-ethylindazol-5-yl)ethynyl]pyrazolo[3,4-d]pyrimidin-1-yl]-2-(methoxymethyl)pyrrolidin-1-yl]prop-2-en-1-one], the IC50 fell in the range of 0.1 to 1 µM.

Regarding `C=CC(=O)N1C[C@@H](n2nc(C#Cc3ccc4c(c3)nc(C)n4C)c3c(N)nccc32)C[C@@H]1CC#N` [Example 43, 2-((2R,4S)-1-acryloyl-4-(4-amino-3-((1,2-dimethyl-1H-benzo[d]imidazol-5-yl)ethynyl)-1H-pyrazolo[4,3-c]pyridin-1-yl)pyrrolidin-2-yl)acetonitrile], the half-maximal inhibitory concentration (IC50) was at most 0.1 µM.

Consider `C=CC(=O)N1C[C@@H](n2nc(C#Cc3c(F)cc4nn(C)cc4c3F)c3c(N)ncnc32)C[C@@H]1COC` [Example 44, 1-((2R,4S)-4-(4-amino-3-((4,6-difluoro-2-methyl-2H-indazol-5-yl)ethynyl)-1H-pyrazolo[3,4-d]pyrimidin-1-yl)-2-(methoxymethyl)pyrrolidin-1-yl)prop-2-en-1-one], for which the IC50 was at most 0.1 µM.

`C=CC(=O)N1C[C@@H](n2nc(C#Cc3c(F)cc4nn(C)cc4c3F)c3c(N)nccc32)C[C@@H]1COC` [Example 45, 1-((2R,4S)-4-(4-amino-3-((4,6-difluoro-2-methyl-2H-indazol-5-yl)ethynyl)-1H-pyrazolo[4,3-c]pyridin-1-yl)-2-(methoxymethyl)pyrrolidin-1-yl)prop-2-en-1-one] had a 50% inhibitory concentration (IC50) of 0.1 to 1 µM.

`C=CC(=O)N1C[C@@H](n2nc(C#Cc3ccc4c(c3)nc(C(F)(F)F)n4C)c3c(N)ncnc32)C[C@@H]1COC` [Example 46, 1-((2R,4S)-4-(4-amino-3-((1-methyl-2-(trifluoromethyl)-1H-benzo[d]imidazol-5-yl)ethynyl)-1H-pyrazolo[3,4-d]pyrimidin-1-yl)-2-(methoxymethyl)pyrrolidin-1-yl)prop-2-en-1-one] returned a concentration for half-maximal inhibition (IC50) of at most 0.1 µM.

With `C=CC(=O)N1C[C@@H](n2nc(C#Cc3ccc4c(c3)nc(C(F)(F)F)n4C)c3c(N)nccc32)C[C@@H]1COC` [Example 47, 1-((2R,4S)-4-(4-amino-3-((1-methyl-2-(trifluoromethyl)-1H-benzo[d]imidazol-5-yl)ethynyl)-1H-pyrazolo[4,3-c]pyridin-1-yl)-2-(methoxymethyl)pyrrolidin-1-yl)prop-2-en-1-one], the IC50 was at most 0.1 µM.

In the case of `C=CC(=O)N1C[C@@H](n2nc(C#Cc3c(F)cc4c(cnn4C)c3F)c3c(N)ncnc32)C[C@@H]1COC` [Example 48, 1-((2R,4S)-4-(4-amino-3-((4,6-difluoro-1-methyl-1H-indazol-5-yl)ethynyl)-1H-pyrazolo[3,4-d]pyrimidin-1-yl)-2-(methoxymethyl)pyrrolidin-1-yl)prop-2-en-1-one], the half-inhibitory concentration (IC50) is at most 0.1 µM.

In turn, `C=CC(=O)N1C[C@@H](n2nc(C#Cc3c(F)cc4nn(CC)cc4c3F)c3c(N)ncnc32)C[C@@H]1COC` [Example 49, 1-((2R,4S)-4-(4-amino-3-((2-ethyl-4,6-difluoro-2H-indazol-5-yl)ethynyl)-1H-pyrazolo[3,4-d]pyrimidin-1-yl)-2-(methoxymethyl)pyrrolidin-1-yl)prop-2-en-1-one] displayed an IC50 of 0.1 to 1 µM.
